According to patent US20050002904A1, “Uses of vascular endothelial growth factor and type I collagen inducible protein (VCIP)” (priority 2003, published 2005):
Where no end group is shown, it is not given here.

Legend:
p120catenin = assay: Far-western assay with GST-PAP2b-cyto fusion protein; assay type: binding, human; details: 2 μg/ml fusion protein
Description: FIGS. 17A-H show interaction of PAP2b/VCIP with p120 catenin in endothelial cells. FIGS. 17A-B: Clarified cell lysates were prepared from endothelial cells infected with indicated PAP2b retroviral constructs A-E as shown in FIG. 14 and subjected to immunoprecipitation with: anti-HA (lanes 1, 2, 4, 5 and 6) or anti-p120 catenin (lane 3) and analyzed by immunoblotting with the indicated antibodies. FIGS. 17C-H: Far western analysis. Endothelial cells were solubilized in RIPA buffer, and immunoprecipitated using indicated antibodies (5 μg/1.5 mg protein). The membrane shown in FIG. 17C was incubated with 2 μg/ml of Gst-PAP2b-cyto fusion protein for 1 hour, washed with 1×TBS+tween (0.1%) and analyzed by immunoblotting with anti-Gst monoclonal antibodies (2 μg/ml). Individual lanes from the blot was excised and probed with: anti-VE-cadherin (FIG. 17D), anti-p120ctn (FIG. 17E), anti-β-catenin (FIG. 17F), anti-γ-catenin (FIG. 17G), and β1-integrin (FIG. 17H) monoclonal antibodies. […]
To further substantiate that the C-terminal cytoplasmic domain of PAP2b was indeed the region involved in the interaction, far-western assay (Wary et al., 1996) was performed using recombinant affinity purified GST-PAP2b-cyto fusion protein as follows. […] After rinsing with TBS, pH 7.5, the membrane was incubated with anti-Gst mouse monoclonal antibodies and detected as previously described (Schor et al., 1996). […]

WT and MT HEK293 cells = assay: Cell aggregation assay, mixed dye-labelled WT and MT cells; assay type: cell-based; details: WT mixed with MT cells; 12 h
Description: FIGS. 9A-F show VCIP mediates heterophilic cell-cell interactions. Magnification, 200×. Bar, […]. *, P<0.05. The images of cell aggregates appear out of focus. FIG. 9A: Representative photomicrograph of a mixture of WT and MT cells labeled with red (Dil) and green (DiO) fluorescent dyes at 0 h. FIG. 9B: Small and large cell-aggregates were visible after 6 h; green arrowheads indicate the most productive cell aggregation (yellow). FIG. 9C: Representative large cell aggregates are shown after 12 h. FIG. 9D: Cells co-incubated with the GRGDSP peptide for 12 h. FIG. 9E: Cells co-incubated with anti-VCIP-RGD antibody (25 μg/ml) after 12 h. All experiments were performed at least three times in triplicates.
To monitor aggregation, cells were labeled with optimal non-toxic concentrations of fluorescent dyes. This assay was performed essentially according to the protocol described by Niessen and Gumbiner (2002), with minor modifications. […] The inhibitory effects of EDTA, peptides and antibodies on cell aggregation were determined at the end of 12 h. […] Experiments were performed at least three times with each time point analyzed in triplicate. Only productive cell aggregates (yellow) were counted. […] Numbers were expressed as the percentage of total aggregates counted. […]

[1] = system: SW480 cells on monolayer HUVECs; assay: Adhesion of SW480 cells to HUVEC monolayer; assay type: cell-based, human; details: pre-incubation; GRGDSP 10, 20 μM; antibody 20, 40 μg/ml; 1 hr
Description: FIGS. 7A-O show the effects of VCIP on adhesion of cadherin-deficient SW480 cells to HUVECs monolayer. SW480-C, SW480-WT, and SW480-MT cells were non-enzymatically detached from dishes, washed, passed through a cell strainer, counted, and labeled with a fluorescent dye (red) prior to experiments. HUVECs were seeded onto 12-well dishes in complete media and allowed to form a 100% confluent monolayer on the day of assay. Monolayer HUVECs were washed once each with PBS and HCMF, and then preincubated in HCMF supplemented with Ca^2+/Mg^2+ for 10 min at 37° C. SW480 cells (0.25×10^6) were finely resuspendend in 500 μl of HCMF buffer supplemented with Ca^2+/Mg^2+, layered onto the monolayer, and allowed to attach at 37° C. for 1 hr. Unattached cells were removed by washing with PBS and adherent cells were fixed with 4% paraformaldehyde. The number of cells adhered to the monolayer were determined using a phase-contrast microscope. Experiments were performed at least three times in triplicates, with three independent clones. […] In each experiment, the relative percentage of cell adhesion was calculated and presented as mean±SD. […] Data are expressed as mean±S.D. (n≧7), *P<0.05. […]

| Substance | interaction with p120catenin (p120catenin) | reaction with VE cadherin, β- and γ-catenin, or β1-integrin polypeptides (p120catenin) | inhibition of cell aggregation (WT and MT HEK293 cells) | blocking of adhesion of pLNCX2-VCIP-RGD SW480 cells to monolayer HUVECs [1] |
| --- | --- | --- | --- | --- |
| GST-PAP2b-c-cyto: recombinant affinity purified GST fusion of the C-terminal cytoplasmic domain of PAP2b (LSLPAPAIRKEILSPVDIIDRNNHHNMM; also: GST fusion) | sufficient to interact with p120catenin | did not react | – | – |
| GRGDSP (CHAIN a peptide containing RGD sequence) | – | – | dose-dependently inhibited cell aggregation | blocked |
| GRADSP [control peptide] | – | – | did not | – |
